Laboratory results from ChEMBL document CHEMBL5346943, “Discovery and Structural Optimization of Novel Quinolone Derivatives as Potent Irreversible Pan-Fibroblast Growth Factor Receptor Inhibitors for Treating Solid Tumors” (J Med Chem, 2023).

Assays:
[1] = AUC (0 to infinity) in Sprague-Dawley rat measured at 10 mg/kg, po for 0.083 to 24 hrs by LC-MS/MS analysis; type: ADME, organism-based; design: dose 10 mg/kg, time upper 24 hrs, time lower 0.083 hrs, route po; conditions: in vivo
[2] = biological target: Fibroblast growth factor receptor 2 (Homo sapiens, UniProt P21802); experiment: Inhibition of FGFR2 (unknown origin) incubated for 10 mins followed by substrate addition measured after 60 mins by ADP-Glo luminescence assay
Chain of Fibroblast growth factor receptor 2 (P21802 whole entry): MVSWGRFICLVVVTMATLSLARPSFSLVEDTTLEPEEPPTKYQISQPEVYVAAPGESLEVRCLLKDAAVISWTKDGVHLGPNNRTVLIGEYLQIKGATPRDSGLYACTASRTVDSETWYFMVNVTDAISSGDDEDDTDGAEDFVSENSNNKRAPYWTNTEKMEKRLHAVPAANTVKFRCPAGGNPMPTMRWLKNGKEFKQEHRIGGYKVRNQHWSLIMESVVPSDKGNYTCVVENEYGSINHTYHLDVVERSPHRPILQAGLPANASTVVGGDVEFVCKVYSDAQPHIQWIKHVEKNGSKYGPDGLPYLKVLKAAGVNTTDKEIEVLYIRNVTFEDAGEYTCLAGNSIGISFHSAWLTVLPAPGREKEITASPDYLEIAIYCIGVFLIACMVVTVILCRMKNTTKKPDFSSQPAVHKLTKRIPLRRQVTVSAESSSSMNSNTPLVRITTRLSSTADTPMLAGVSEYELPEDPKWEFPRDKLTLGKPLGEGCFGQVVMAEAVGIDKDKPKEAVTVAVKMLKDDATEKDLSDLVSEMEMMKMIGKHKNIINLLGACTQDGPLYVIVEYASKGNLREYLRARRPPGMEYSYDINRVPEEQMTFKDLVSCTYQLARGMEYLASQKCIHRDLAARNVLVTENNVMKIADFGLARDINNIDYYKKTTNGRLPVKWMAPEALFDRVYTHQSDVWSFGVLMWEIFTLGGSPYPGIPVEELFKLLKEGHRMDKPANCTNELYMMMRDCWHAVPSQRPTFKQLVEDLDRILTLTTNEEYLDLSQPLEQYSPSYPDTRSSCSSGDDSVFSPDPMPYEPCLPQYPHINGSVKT

[3] = Cmax in Sprague-Dawley rat measured at 10 mg/kg, po for 0.083 to 24 hrs by LC-MS/MS analysis; type: ADME, organism-based; design: time 0.083-24 hrs, dose 10 mg/kg, route po; conditions: in vivo
[4] = MRT (0 to infinity) in Sprague-Dawley rat measured at 10 mg/kg, po for 0.083 to 24 hrs by LC-MS/MS analysis; type: ADME, organism-based; conditions: in vivo, time 0.083-24 hrs
[5] = test system: MCF7; experiment: Antiproliferative activity against human MCF7 cells incubated for 72 hrs by Cell counting kit 8 method; type: functional, cell-based; conditions: MCF7, 72 h
[6] = Half life in Sprague-Dawley rat measured at 30 mg/kg, po for 0.083 to 24 hrs by LC-MS/MS analysis; type: ADME, organism-based; conditions: in vivo, time 0.083-24 hrs
[7] = Permeability of the compound at 10 uM preincubated in acceptor compartment for 16 hrs followed by 16 hrs incubation in donor compartment by PAMPA based LC-MS/MS analysis; type: ADME; conditions: time 32 hrs, read-out: permeability
[8] = Tmax in Sprague-Dawley rat measured at 30 mg/kg, po for 0.083 to 24 hrs by LC-MS/MS analysis; type: ADME, organism-based; conditions: in vivo, time 0.083-24 hrs
[9] = Tmax in Sprague-Dawley rat measured at 2 mg/kg, iv for 0.083 to 24 hrs by LC-MS/MS analysis; type: ADME, organism-based; conditions: in vivo, time 0.083-24 hrs
[10] = AUC(0 to infinity) in Sprague-Dawley rat measured at 30 mg/kg, po for 0.083 to 24 hrs by LC-MS/MS analysis; type: ADME, organism-based; design: time upper 24 hrs, dose 30 mg/kg, time lower 0.083 hrs, route po; conditions: in vivo
[11] = Antiproliferative activity against human RBE cells incubated for 72 hrs by Cell counting kit 8 method; type: functional, cell-based
[12] = Cmax in Sprague-Dawley rat measured at 2 mg/kg, iv for 0.083 to 24 hrs by LC-MS/MS analysis; type: ADME, organism-based; design: time upper 24 hrs, time lower 0.083 hrs, dose 2 mg/kg, route iv; conditions: in vivo
[13] = MRT (0 to infinity) in Sprague-Dawley rat measured at 2 mg/kg, iv for 0.083 to 24 hrs by LC-MS/MS analysis; type: ADME, organism-based; conditions: in vivo, time 0.083-24 hrs
[14] = AUC(0 to infinity) in Sprague-Dawley rat measured at 100 mg/kg, po for 0.083 to 24 hrs by LC-MS/MS analysis; type: ADME, organism-based; design: dose 100 mg/kg, time 0.083-24 hrs, route po; conditions: in vivo
[15] = test system: NCI-H1581; experiment: Antiproliferative activity against human NCI-H1581 cells incubated for 72 hrs by Cell counting kit 8 method; type: functional, cell-based; conditions: NCI-H1581, 72 h
[16] = Cmax in Sprague-Dawley rat measured at 100 mg/kg, po for 0.083 to 24 hrs by LC-MS/MS analysis; type: ADME, organism-based; design: time upper 24 hrs, dose 100 mg/kg, time lower 0.083 hrs, route po; conditions: in vivo
[17] = test system: Huh-7; experiment: Antitumor activity against human Huh-7 cells xenografted in BALB/c nude mouse assessed as reduction in tumor growth once daily administered orally for 24 days; type: functional; conditions: dose 15-60 mg/kg, route po, time 24.0 day
[18] = Half life in Sprague-Dawley rat measured at 60 mg/kg, po for 0.083 to 24 hrs by LC-MS/MS analysis; type: ADME, organism-based; conditions: in vivo, time 0.083-24 hrs
[19] = Tmax in Sprague-Dawley rat measured at 10 mg/kg, po for 0.083 to 24 hrs by LC-MS/MS analysis; type: ADME, organism-based; conditions: in vivo, time 0.083-24 hrs

- AUC(0-inf) [1]: 1970 ng·h/mL
- IC50 [2]: 3.1 nM
- Cmax [3]: 1800 ng/mL
- MRT [4]: 190 min
- IC50 [5]: > 10000 nM
- half-life [6]: 193 min
- Papp at 16 h, 10 µM [7]: 12.3 ×10⁻⁶ cm/s
- Tmax [8]: 30 min
- Tmax [9]: 4.8 min
- AUC(0-inf) [10]: 7950 ng·h/mL
- Cmax [12]: 1840 ng/mL
- MRT [13]: 11.4 min
- AUC(0-inf) [14]: 28200 ng·h/mL
- IC50 [15]: < 0.31 nM
- Cmax [16]: 14600 ng/mL
- half-life [18]: 145 min
- Tmax [19]: 15 min
Compound: C=CC(=O)N1CCC(c2cc3c(Oc4ccc(NC(=O)NC5CC5)c(Cl)c4)ccnc3cc2OC)CC1
- IC50 [11]: 357 nM
- Activity [17]: Dose-Dependent Effect
